Read-outs that look alike come from different tables or passages of the source.
How the values were obtained:
[1] = molecular target: T1, human recombinant AT1 receptor (Homo sapiens, UniProt P30556); assay: Binding to AT1 receptor, radiometric scintillation assay (Eurofins); conditions: ligand 125I(sar1,Ile8)-AT-II, tested at 1 and 10 μM
T1 construct: purchased Eurofins ITEM24
T1 sequence (P30556 1-359): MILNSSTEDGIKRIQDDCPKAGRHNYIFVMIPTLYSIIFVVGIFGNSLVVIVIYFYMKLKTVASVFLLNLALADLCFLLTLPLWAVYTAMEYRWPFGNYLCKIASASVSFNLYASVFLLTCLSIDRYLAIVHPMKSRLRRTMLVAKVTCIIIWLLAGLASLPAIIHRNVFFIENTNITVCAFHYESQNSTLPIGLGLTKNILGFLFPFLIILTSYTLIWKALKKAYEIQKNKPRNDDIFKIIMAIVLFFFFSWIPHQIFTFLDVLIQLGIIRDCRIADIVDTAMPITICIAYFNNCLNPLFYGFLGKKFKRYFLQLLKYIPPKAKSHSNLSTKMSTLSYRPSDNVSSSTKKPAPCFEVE
Description: (§1) Compounds were evaluated for binding to the human recombinant AT2 and AT1 receptor according to Eurofins protocol ITEM26 and ITEM24 using a radiometric scintillation assay.

[2] = molecular target: T2, human recombinant AT2 receptor (Homo sapiens, UniProt P50052); assay: Binding to AT2 receptor, radiometric scintillation assay (Eurofins); conditions: ligand 125I CGP 42112A, tested at 1, 10, 100 and 1000 nM
T2 construct: purchased Eurofins ITEM26
T2 sequence (P50052 1-363): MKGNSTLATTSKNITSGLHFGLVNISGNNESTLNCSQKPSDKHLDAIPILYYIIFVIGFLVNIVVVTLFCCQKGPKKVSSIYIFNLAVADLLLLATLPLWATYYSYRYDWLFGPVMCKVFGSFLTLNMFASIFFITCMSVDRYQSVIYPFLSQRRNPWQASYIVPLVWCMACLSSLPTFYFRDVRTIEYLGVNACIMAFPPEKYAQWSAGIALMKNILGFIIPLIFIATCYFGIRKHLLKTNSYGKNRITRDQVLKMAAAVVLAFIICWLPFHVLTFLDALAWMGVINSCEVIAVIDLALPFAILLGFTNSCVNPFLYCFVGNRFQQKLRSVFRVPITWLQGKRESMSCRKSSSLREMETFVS
Description: as §1

[3] = molecular target: T3, CYP2B6 (Homo sapiens, UniProt P20813); assay: CYP inhibition in human liver microsomes, CYP2B6; assay type: in vitro ADME; conditions: probe bupropion, substrate bupropion, read-out: CYP2B6 Inh %
T3 construct: incubated with human liver microsomes; tissue Eurofins ITEMG232; host or cells: human liver microsomes
T3 sequence (P20813 1-491): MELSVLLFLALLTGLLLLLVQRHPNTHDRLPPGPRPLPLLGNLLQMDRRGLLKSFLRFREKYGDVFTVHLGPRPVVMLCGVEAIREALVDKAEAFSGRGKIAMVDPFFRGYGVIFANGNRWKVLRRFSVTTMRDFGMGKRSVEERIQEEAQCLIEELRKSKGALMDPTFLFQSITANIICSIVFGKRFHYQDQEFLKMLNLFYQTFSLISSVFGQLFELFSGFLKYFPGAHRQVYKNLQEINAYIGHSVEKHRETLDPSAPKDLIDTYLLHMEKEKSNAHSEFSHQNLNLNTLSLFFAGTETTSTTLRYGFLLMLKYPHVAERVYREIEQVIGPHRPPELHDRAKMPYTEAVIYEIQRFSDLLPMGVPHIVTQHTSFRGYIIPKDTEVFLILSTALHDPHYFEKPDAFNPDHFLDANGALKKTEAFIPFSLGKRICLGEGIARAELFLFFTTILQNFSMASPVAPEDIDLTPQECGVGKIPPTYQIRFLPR
Description: (§2) The following substrates were used: CYP1A phenacetin, CYP2B6 bupropion, CYP2C8 paclitaxel and amodiaquine, CYP2C9 diclofenac, CYP2C19 omeprazole, CYP2D6 dextromethorphan, CYP3A midazolam and testosterone. At the end of the incubation, the formation of metabolite was monitored by HPLC-MS/MS as the peak area response.

[4] = molecular target: CYP3A4 (Homo sapiens, UniProt P08684); assay: CYP inhibition in human liver microsomes, CYP3A4 (midazolam); assay type: in vitro ADME; set-up: incubated with human liver microsomes; tissue Eurofins ITEMG232; host or cells: human liver microsomes; conditions: probe midazolam, substrate midazolam, read-out: CYP3A4 midazolam Inh %
Description: as §2

[5] = molecular target: T4, CYP2D6 (Homo sapiens, UniProt P10635); assay: CYP inhibition in human liver microsomes, CYP2D6; assay type: in vitro ADME; conditions: probe dextromethorphan, substrate dextromethorphan, read-out: CYP2D6 Inh %
T4 construct: incubated with human liver microsomes; tissue Eurofins ITEMG232; host or cells: human liver microsomes
Description: as §2

[6] = molecular target: CYP2C9 (Homo sapiens, UniProt P11712); assay: CYP inhibition in human liver microsomes, CYP2C9; assay type: in vitro ADME; set-up: incubated with human liver microsomes; tissue Eurofins ITEMG232; host or cells: human liver microsomes; conditions: probe diclofenac, substrate diclofenac, read-out: CYP2C9 Inh %
Description: as §2

[7] = molecular target: T5, CYP2C19 (Homo sapiens, UniProt P33261); assay: CYP inhibition in human liver microsomes, CYP2C19; assay type: in vitro ADME; conditions: probe omeprazole, substrate omeprazole, read-out: CYP2C19 Inh %
T5 construct: incubated with human liver microsomes; tissue Eurofins ITEMG232; host or cells: human liver microsomes
Description: as §2

[8] = Metabolic stability in pooled human liver microsomes; assay type: in vitro ADME; conditions: pooled human liver microsomes 0.5 mg/ml, 1 μM test compound, 37° C.
Description: Pooled human liver microsomes in PBS at a concentration of 0.5 mg/ml was incubated with or without 1 mM NADPH for 70 min at 37° C. Test compound was added after 10 minutes to a final concentration of 1 μM. Samples were withdrawn at 0, 5, 15 and 60 minutes and added to test tubes containing acetonitrile, to stop the reaction, and with terfenadine, used as internal standard. After centrifugation at 10 000×g for 5 minutes the supernatant was diluted 1:1 with 1% formic acid. Samples were separated on a reverse phase column and detected by triple quadrupole MSMS (Agilant model 6540). The concentration of the parent compound at the different time points was measured with an external standard curve using terfenadine as internal standard and the initial metabolic rate in the presence or absence of NADPH calculated.

[9] = molecular target: T6, CYP1A (Homo sapiens, UniProt P05177); assay: CYP inhibition in human liver microsomes, CYP1A; assay type: in vitro ADME; conditions: probe phenacetin, substrate phenacetin, read-out: CYP1A Inh %
T6 construct: incubated with human liver microsomes; tissue Eurofins ITEMG232; host or cells: human liver microsomes
T6 sequence (P05177 1-516): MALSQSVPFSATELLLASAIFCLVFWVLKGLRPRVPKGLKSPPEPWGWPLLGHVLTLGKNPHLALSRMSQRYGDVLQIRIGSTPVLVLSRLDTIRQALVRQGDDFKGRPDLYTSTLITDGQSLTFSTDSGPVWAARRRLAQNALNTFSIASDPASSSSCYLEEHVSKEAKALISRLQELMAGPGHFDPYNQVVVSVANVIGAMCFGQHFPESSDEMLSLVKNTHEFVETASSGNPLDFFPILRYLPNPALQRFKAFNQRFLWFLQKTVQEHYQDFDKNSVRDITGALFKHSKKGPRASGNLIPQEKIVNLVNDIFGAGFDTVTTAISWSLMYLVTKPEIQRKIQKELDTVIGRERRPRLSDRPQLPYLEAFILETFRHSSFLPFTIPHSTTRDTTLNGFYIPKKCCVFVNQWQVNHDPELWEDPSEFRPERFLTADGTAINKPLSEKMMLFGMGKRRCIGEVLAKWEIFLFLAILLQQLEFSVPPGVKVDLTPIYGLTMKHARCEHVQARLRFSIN
Description: as §2

[10] = molecular target: T7, CYP2C8 (Homo sapiens, UniProt P10632); assay: CYP inhibition in human liver microsomes, CYP2C8; assay type: in vitro ADME; conditions: probe paclitaxel and amodiaquine, substrate paclitaxel and amodiaquine, read-out: CYP2C8 Inh %
T7 construct: incubated with human liver microsomes; tissue Eurofins ITEMG232; host or cells: human liver microsomes
T7 sequence (P10632 1-490): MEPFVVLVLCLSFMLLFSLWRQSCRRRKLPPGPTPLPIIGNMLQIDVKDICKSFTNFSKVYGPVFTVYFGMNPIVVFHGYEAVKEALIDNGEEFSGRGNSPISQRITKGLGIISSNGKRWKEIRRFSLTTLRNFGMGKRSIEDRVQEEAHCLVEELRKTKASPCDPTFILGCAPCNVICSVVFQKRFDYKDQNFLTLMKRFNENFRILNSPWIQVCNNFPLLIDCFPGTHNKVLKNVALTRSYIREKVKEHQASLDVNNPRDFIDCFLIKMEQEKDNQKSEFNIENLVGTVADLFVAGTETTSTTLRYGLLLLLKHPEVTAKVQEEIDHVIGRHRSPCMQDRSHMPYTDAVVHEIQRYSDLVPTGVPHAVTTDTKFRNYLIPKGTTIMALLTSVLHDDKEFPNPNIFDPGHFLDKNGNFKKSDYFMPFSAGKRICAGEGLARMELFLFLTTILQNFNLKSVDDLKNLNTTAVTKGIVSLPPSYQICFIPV
Description: as §2

[11] = tested on: CYP3A4&5; assay: CYP inhibition in human liver microsomes, CYP3A4&5 (testosterone); assay type: in vitro ADME; conditions: probe testosterone, substrate testosterone, read-out: CYP3A4&5 testosterone Inh %
Description: as §2

[12] = with 1 mM NADPH, read-out: T1/2, + NaDPH
[13] = without NADPH, read-out: T1/2, no NaDPH

T5 sequence (P33261 whole entry): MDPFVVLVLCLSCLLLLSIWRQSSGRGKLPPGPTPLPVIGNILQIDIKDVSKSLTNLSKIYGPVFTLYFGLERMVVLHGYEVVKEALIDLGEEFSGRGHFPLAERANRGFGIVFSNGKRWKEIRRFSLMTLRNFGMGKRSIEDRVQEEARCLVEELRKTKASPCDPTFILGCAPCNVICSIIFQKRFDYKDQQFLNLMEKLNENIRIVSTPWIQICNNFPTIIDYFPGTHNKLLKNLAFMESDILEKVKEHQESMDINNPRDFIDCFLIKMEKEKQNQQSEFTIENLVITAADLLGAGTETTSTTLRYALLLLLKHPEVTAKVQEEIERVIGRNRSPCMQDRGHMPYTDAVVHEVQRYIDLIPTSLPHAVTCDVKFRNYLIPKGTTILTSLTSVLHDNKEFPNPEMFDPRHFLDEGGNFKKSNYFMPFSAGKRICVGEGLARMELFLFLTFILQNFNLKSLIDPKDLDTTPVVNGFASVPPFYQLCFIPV
Sequence of CYP3A4 (P08684 whole entry): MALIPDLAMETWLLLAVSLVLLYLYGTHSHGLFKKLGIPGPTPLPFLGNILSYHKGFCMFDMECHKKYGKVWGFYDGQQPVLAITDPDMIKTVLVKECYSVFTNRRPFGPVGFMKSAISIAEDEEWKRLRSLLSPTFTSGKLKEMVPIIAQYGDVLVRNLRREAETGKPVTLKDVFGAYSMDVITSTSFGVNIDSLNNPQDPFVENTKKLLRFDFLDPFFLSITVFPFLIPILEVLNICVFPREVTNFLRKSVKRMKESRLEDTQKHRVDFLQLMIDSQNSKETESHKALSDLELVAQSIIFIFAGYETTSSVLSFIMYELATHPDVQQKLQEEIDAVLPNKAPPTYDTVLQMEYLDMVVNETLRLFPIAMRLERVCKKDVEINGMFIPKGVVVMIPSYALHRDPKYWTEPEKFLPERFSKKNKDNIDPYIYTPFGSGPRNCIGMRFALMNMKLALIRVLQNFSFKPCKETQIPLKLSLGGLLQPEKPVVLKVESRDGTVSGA
Sequence of CYP2C9 (P11712 whole entry): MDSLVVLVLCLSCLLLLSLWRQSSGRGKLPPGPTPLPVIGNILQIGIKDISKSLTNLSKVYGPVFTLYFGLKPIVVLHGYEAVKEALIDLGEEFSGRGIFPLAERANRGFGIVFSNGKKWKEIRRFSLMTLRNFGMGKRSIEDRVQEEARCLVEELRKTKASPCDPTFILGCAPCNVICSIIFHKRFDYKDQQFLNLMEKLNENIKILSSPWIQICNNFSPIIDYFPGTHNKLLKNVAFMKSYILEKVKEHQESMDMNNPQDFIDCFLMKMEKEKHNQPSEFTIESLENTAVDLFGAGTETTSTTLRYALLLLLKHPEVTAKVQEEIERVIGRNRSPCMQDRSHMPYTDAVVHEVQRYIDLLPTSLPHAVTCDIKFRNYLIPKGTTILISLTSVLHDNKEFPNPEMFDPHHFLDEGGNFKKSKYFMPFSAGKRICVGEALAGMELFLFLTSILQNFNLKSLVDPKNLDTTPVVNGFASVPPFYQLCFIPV
T4 sequence (P10635 whole entry): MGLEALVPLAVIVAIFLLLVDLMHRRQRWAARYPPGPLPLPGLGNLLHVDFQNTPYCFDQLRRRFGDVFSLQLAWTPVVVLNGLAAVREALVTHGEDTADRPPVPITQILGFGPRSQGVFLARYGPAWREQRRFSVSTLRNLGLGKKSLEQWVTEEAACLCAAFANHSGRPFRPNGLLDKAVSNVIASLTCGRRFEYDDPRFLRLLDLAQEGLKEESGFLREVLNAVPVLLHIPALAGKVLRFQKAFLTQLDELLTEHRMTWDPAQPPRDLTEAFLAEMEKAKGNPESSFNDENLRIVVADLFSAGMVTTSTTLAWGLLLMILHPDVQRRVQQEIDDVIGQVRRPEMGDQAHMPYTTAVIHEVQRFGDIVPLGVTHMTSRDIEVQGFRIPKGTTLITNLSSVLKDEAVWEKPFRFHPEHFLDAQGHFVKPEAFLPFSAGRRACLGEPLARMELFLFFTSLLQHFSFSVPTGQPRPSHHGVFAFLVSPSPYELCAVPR

| IC50 [1] | IC50 [2] | inhibition at 10 µM [3] | inhibition at 10 µM [4] | inhibition at 10 µM [5] | inhibition at 10 µM [6] | inhibition at 10 µM [7] | half-life at 1 μM [8, 12] | half-life at 1 μM [8, 13] | inhibition at 10 µM [9] | inhibition at 10 µM [10] | inhibition at 10 µM [11] | SMILES |
| --- | --- | --- | --- | --- | --- | --- | --- | --- | --- | --- | --- | --- |
|  |  | 18.8% | 17.5% | 0% | 24% | 95.8% | 46 min | > 60 min | 21.2% | 60.2% | 29.8% | Cc1cn(Cc2ccc(-c3cc(CC(C)C)sc3S(=O)(=O)NC(=O)NCCC(F)(F)F)cc2)c(C)n1 [Example 8, 3-(3-{p-[(2,4-Dimethyl-1H-imidazol-1-yl)methyl]phenyl}-5-isobutyl-2-thienylsulfonyl)-1-(3,3,3-trifluoropropyl)urea] |
|  |  | 9.9% | 4.1% | 5.5% | 21.6% | 37.3% | > 60 min | > 60 min | -4.2% | 25.3% | 8.2% | Cc1nccn1Cc1ccc(-c2cc(CC(C)C)sc2S(=O)(=O)NC(=O)NCCC(F)(F)F)cc1 [Example 3, 3-(5-isobutyl-3-{p-[(2-Methyl-1H-imidazol-1-yl)methyl]phenyl}-2-thienylsulfonyl)-1-(3,3,3-trifluoropropyl)-urea] |

The remaining lines, values behind:

| SMILES | IC50 [1] | IC50 [2] | inhibition at 10 µM [3] | inhibition at 10 µM [4] | inhibition at 10 µM [5] | inhibition at 10 µM [6] | inhibition at 10 µM [7] | half-life at 1 μM [8, 12] | half-life at 1 μM [8, 13] | inhibition at 10 µM [9] | inhibition at 10 µM [10] | inhibition at 10 µM [11] |
| --- | --- | --- | --- | --- | --- | --- | --- | --- | --- | --- | --- | --- |
| CC(C)Cc1cc(-c2ccc(Cn3ccnc3C(C)C)c(F)c2)c(S(=O)(=O)NC(=O)NCCCC(F)(F)F)s1 [Example 42, 1-{[3-(3-fluoro-4-{[2-(propan-2-yl)-1H-imidazol-1-yl]methyl}phenyl)-5-(2-methylpropyl)thiophen-2-yl]sulfonyl}-3-(4,4,4-trifluorobutyl)urea trifluoroacetic acid] | 5 µM | 2.9 nM |  |  |  |  |  |  |  |  |  |  |
| CCc1nccn1Cc1ccc(-c2cc(CC(C)C)sc2S(=O)(=O)NC(=O)NCc2ccccn2)cc1 [Example 9, 3-(3-{p-[(2-Ethyl-1H-imidazol-1-yl)methyl]phenyl}-5-isobutyl-2-thienylsulfonyl)-1-[(2-pyridyl)methyl]urea] |  |  | 0% | -19% | 24% | 28% | 18% | > 60 min | > 60 min | -9% | 52% | 17% |
| CCc1nccn1Cc1ccc(-c2cc(CC(C)C)sc2S(=O)(=O)NC(=O)NCCC(F)(F)F)cc1F.O=C(O)C(F)(F)F [Example 30, 1-[(3-{4-[(2-ethyl-1H-imidazol-1-yl)methyl]-3-fluorophenyl}-5-(2-methylpropyl)thiophen-2-yl)sulfonyl]-3-(3,3,3-trifluoropropyl)urea trifluoroacetic acid] |  |  | 30% | -3% | 12% | 61% | 53% | 40 min | > 60 min | -1% | 64% | 13% |
| Cc1nccn1Cc1ccc(-c2cc(CC(C)C)sc2S(=O)(=O)NC(=O)NCc2ccccc2)cc1F [Example 12, 1-Benzyl-3-(3-{3-fluoro-4-[(2-methyl-1H-imidazol-1-yl)methyl]phenyl}-5-isobutyl-2-thienylsulfonyl)urea] |  |  | 33% | 32% | 58% | 64% | 62% |  |  | 4% | 51% | 24% |
| Cc1nccn1Cc1ccc(-c2cc(CC(C)C)sc2S(=O)(=O)NC(=O)NCCCC(F)(F)F)cc1F [Example 18, 3-(3-{3-Fluoro-4-[(2-methyl-1H-imidazol-1-yl)methyl]phenyl}-5-isobutyl-2-thienylsulfonyl)-1-(4,4,4-trifluorobutyl)urea] |  |  | 59% | 50% | 20% | 62% | 78% | 30 min | > 60 min | 15% | 72% | 24% |

Source: patent US12435072B2, “Compounds” (Vicore Pharma AB, priority 2019, dated 2025)
